The test deals with AGS gastric cancer cells. Kind of test: Zebrafish xenograft gastric cancer model (AGS). Format: in vivo. The protocol: Transgenic Tg(fli1:EGFP)y1 zebrafish embryos were cultured in E3 embryo medium with 0.2 mM 1-phenyl-2-thiourea (PTU) at 28 °C for 48 hours. HCC70 breast cancer cells were cultured using RPMI-1640 medium supplemented with 10 % FBS, and AGS gastric cancer cells were cultured using F-12K medium supplemented with 10 % FBS. Each cell was collected, labeled with Dil red fluorescent dye, and then subcutaneously transplanted into 2-day-old zebrafish embryos. After selecting embryos with tumors, they were classified into experimental groups (20 embryos per group), and each Example compound dissolved and diluted in DMSO across 2 to 3 concentration ranges, a DMSO control group, or a comparative compound were added, followed by incubation at 35.5 °C for 48 hours or 72 hours. In the breast cancer model, primary tumors were collected immediately after transplantation (Day 0) and after 48 hours (Day 2), and in the gastric cancer model, primary tumors were obtained immediately after transplantation (Day 0) and after 72 hours (Day 3). Images of the collected tumors were analyzed for reduction in tumor size compared to the DMSO control group using image software, and the number of disseminated cancer cells after 3 days was manually counted through the captured images, with the results shown in FIGs. 6, 7, and 8. […]

One compound from EP4813991A1 (iLeadBMS Co., Ltd., priority 2023, dated 2025) can be followed below.

On to `CN1CCN(c2cc(NCc3nc4ccc(F)c(F)c4[nH]3)c3ncc(C(F)(F)F)n3n2)CC1` [Example 8, N-((6,7-difluoro-1H-benzo[d]imidazol-2-yl)methyl)-6-(4-methylpiperazin-1-yl)-3-(trifluoromethyl)imidazo[1,2-b]pyridazin-8-amine], for which the “number of metastatic gastric cancer cells” value (0.1 µM, compared to 1 mM of 5-FU, FIG. 8) is “significant reduction in the number of metastatic gastric cancer cells”. Besides, the “reduction in tumor size” value (72 hours, compared to the vehicle, FIG. 7) was “dose-dependent reduction in tumor size”.
